Laboratory results taken from US8637509B2, “Azaindazoles” (GlaxoSmithKline LLC, priority 2010, dated 2014).

Target: T1, EZH2 (Homo sapiens, UniProt Q15910)
T1 construct: GRITS37108
Experiment: EZH2 methyltransferase SPA assay (3H-SAM, Hela nucleosomes)
Format: biochemical
Details: read-out: IC50
Experimental: • 1. […] Prepare 500 μM SAH quench solution in ddH20 with 5-10 drops of concentrated HCl to dissolve. • 5. Prepare 6 mg/ml RNA binding SPA beads (Perkin Elmer) suspended in 0.2 M Citric Acid, pH 2.2
Part C. […] Dispense 5 μL no enzyme control (assay buffer mix) to column 18 of plates. • 2. Dispense 5 μL of enzyme mix to the remaining wells in the plate. Centrifuge plate to mix and incubate at room temperature for 30 minutes. • 3. Dispense 5 μL of substrate mix to all wells to initiate the reactions. Centrifuge plate to mix and incubate at room temperature for 2 hours. • 4. […] Dispense 10 μL of 6 mg/ml RNA binding SPA beads prepared in 0.2 M citric acid, pH 2.2 using the Evolution instrument. Continuously shake the beads while adding to plates to prevent beads from settling. • 6. Seal the plates with Perkin Elmer top seals and allow the beads to equilibrate in the plate for at least 30 minutes at room temperature. • 7. […] Read plates in Microbeta after at least 5 hours incubation. Plates can be read immediately, but signal increases over time.
Reagent addition can be done manually or with automated liquid handler.
*The final DMSO concentration in this assay is 1%.
*The positive control is in column 6; negative control is in column 18.

T1 sequence (Q15910 whole entry): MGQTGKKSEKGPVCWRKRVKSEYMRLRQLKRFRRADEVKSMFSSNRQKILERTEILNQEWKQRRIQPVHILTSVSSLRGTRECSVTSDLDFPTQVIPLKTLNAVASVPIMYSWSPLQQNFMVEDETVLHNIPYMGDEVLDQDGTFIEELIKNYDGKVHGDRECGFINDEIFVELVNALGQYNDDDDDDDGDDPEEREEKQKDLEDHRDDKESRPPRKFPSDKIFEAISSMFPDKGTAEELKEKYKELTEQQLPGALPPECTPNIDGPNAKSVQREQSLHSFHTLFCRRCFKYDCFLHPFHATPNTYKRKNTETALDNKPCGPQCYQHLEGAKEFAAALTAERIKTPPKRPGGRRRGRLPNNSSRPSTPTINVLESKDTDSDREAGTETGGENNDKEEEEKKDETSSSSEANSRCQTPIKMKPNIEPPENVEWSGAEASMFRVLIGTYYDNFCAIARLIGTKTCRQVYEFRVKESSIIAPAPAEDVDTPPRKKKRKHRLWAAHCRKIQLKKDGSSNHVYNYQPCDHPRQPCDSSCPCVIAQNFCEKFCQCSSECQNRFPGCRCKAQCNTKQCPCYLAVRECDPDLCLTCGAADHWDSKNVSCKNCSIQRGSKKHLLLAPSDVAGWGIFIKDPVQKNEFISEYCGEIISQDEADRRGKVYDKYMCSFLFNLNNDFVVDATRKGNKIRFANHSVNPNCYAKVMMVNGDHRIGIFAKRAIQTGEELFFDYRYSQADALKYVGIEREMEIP
T1 sequence (O75530 whole entry partner): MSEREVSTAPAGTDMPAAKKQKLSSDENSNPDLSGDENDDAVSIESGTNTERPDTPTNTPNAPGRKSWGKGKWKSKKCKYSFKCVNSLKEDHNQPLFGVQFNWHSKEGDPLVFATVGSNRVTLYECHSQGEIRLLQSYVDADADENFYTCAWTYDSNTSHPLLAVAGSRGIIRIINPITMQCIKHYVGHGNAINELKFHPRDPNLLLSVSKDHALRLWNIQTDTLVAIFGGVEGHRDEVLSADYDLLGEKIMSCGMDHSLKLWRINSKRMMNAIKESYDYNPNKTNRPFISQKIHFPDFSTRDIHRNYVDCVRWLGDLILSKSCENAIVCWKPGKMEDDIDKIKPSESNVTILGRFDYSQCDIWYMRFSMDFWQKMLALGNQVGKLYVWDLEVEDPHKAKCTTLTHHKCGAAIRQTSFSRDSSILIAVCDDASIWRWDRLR
T1 sequence (Q15022 whole entry partner): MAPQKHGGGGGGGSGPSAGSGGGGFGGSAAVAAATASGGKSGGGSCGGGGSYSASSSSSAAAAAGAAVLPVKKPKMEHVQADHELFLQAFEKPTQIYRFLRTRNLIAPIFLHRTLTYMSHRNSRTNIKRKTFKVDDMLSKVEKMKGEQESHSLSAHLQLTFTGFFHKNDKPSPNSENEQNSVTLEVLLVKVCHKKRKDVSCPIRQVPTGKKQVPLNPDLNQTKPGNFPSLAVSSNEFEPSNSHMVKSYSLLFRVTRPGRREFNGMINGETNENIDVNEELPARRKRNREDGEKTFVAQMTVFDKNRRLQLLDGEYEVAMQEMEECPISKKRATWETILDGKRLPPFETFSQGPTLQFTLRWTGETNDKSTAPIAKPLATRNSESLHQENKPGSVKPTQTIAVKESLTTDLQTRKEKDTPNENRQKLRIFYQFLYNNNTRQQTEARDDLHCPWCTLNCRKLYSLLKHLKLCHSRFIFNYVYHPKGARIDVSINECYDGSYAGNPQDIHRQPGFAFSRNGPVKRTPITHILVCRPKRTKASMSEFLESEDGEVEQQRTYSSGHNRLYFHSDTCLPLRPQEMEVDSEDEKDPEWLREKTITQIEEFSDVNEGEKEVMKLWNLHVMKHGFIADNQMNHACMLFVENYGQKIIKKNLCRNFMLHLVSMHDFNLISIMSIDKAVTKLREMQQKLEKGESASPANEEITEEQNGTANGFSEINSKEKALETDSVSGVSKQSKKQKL

IC50 [µM] | Compound
1.89 | Cc1cc(C)c(CNC(=O)c2cc(-c3ccccc3C)nc3c2cnn3C(C)C)c(=O)[nH]1 [Ex 70, N-[(4,6-Dimethyl-2-oxo-1,2-dihydro-3-pyridinyl)methyl]-1-(1-methylethyl)-6-(2-methylphenyl)-1H-pyrazolo[3,4-b]pyridine-4-carboxamide]
0.673 | Cc1cc(C)c(CNC(=O)c2cc(NCc3ccccc3)nc3c2cnn3C(C)C)c(=O)[nH]1 [Ex 35, N-[(4,6-Dimethyl-2-oxo-1,2-dihydro-3-pyridinyl)methyl]-1-(1-methylethyl)-6-[(phenylmethyl)amino]-1H-pyrazolo[3,4-b]pyridine-4-carboxamide]
0.161 | Cc1cc(C)c(CNC(=O)c2cc(-c3ccc(NS(C)(=O)=O)cc3)nc3c2cnn3C(C)C)c(=O)[nH]1 [Ex 51, N-[(4,6-Dimethyl-2-oxo-1,2-dihydro-3-pyridinyl)methyl]-1-(1-methylethyl)-6-{4-[(methylsulfonyl]amino]phenyl}-1H-pyrazolo[3,4-b]pyridine-4-carboxamide]
0.082 | Cc1cc(C)c(CNC(=O)c2cc(-c3ccc4[nH]nnc4c3)nc3c2cnn3C(C)C)c(=O)[nH]1 [Ex 76, 6-(1H-1,2,3-Benzotriazol-5-yl)-N-[(4,6-dimethyl-2-oxo-1,2-dihydro-3-pyridinyl)methyl]-1-(1-methylethyl)-1H-pyrazolo[3,4-b]pyridine-4-carboxamide]
0.198 | Cc1cc(C)c(CNC(=O)c2cc(-c3ccc(N)nc3)nc3c2cnn3C(C)C)c(=O)[nH]1 [Ex 60, 6-(6-Amino-3-pyridinyl)-N-[(4,6-dimethyl-2-oxo-1,2-dihydro-3-pyridinyl)methyl]-1-(1-methylethyl)-1H-pyrazolo[3,4-b]pyridine-4-carboxamide]
0.076 | CNS(=O)(=O)c1ccc(-c2cc(C(=O)NCc3c(C)cc(C)[nH]c3=O)c3c(C)nn(C(C)C)c3n2)cc1 [Ex 92, N-[(4,6-Dimethyl-2-oxo-1,2-dihydro-3-pyridinyl)methyl]-3-methyl-6-{4-[(methylamino)sulfonyl]phenyl}-1-(1-methylethyl)-1H-pyrazolo[3,4-b]pyridine-4-carboxamide]
0.179 | Cc1cc(C2CCCCC2)c(CNC(=O)c2cc(-c3ccncc3)nc3c2cnn3C(C)C)c(=O)[nH]1 [Ex 15, N-[(4-Cyclohexyl-6-methyl-2-oxo-1,2-dihydro-3-pyridinyl)methyl]-1-(1-methylethyl)-6-(4-pyridinyl)-1H-pyrazolo[3,4-b]pyridine-4-carboxamide]
0.055 | Cc1cc(C)c(CNC(=O)c2cc(-c3cncc(NS(=O)(=O)c4ccccc4)c3)nc3c2cnn3C(C)C)c(=O)[nH]1 [Ex 65, N-[(4,6-Dimethyl-2-oxo-1,2-dihydro-3-pyridinyl)methyl]-1-(1-methylethyl)-6-{5-[(phenylsulfonyl)amino]-3-pyridinyl}-1H-pyrazolo[3,4-b]pyridine-4-carboxamide]
0.173 | Cc1cc(C)c(CNC(=O)c2cc(-c3ccc4nonc4c3)nc3c2c(C)nn3C(C)C)c(=O)[nH]1 [Ex 90, 6-(2,1,3-Benzoxadiazol-5-yl)-N-[(4,6-dimethyl-2-oxo-1,2-dihydro-3-pyridinyl)methyl]-3-methyl-1-(1-methylethyl)-1H-pyrazolo[3,4-b]pyridine-4-carboxamide]
0.436 | Cc1cc(C)c(CNC(=O)c2cc(NC3CCNCC3)nc3c2cnn3C(C)C)c(=O)[nH]1 [Ex 53, N-[(4,6-Dimethyl-2-oxo-1,2-dihydro-3-pyridinyl)methyl]-1-(1-methylethyl)-6-(4-piperidinylamino)-1H-pyrazolo[3,4-b]pyridine-4-carboxamide]
0.218 | Cc1cc(C)c(CNC(=O)c2cc(-c3ccccc3)nc3c2c(Br)nn3C(C)C)c(=O)[nH]1 [Ex 123, 3-Bromo-N-[(4,6-dimethyl-2-oxo-1,2-dihydro-3-pyridinyl)methyl]-1-(1-methylethyl)-6-phenyl-1H-pyrazolo[3,4-b]pyridine-4-carboxamide]
